From PubChem BioAssay (NCI)
Values after ≈ are worked out from the molar mass of the structure shown. Values joined by “and” are separate entries in the source; they are usually repeats but may differ in a detail not shown here. Equal values may be shown once.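 These data come from cells grown in 96-well plates and exposed to compound for 48 hours at five concentrations. GI50 = concentration required for 50% inhibition of growth. TGI: concentration producing complete growth inhibition.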

Columns and labels:
Test in all cases: growth of human tumour cells (NCI), 48 h
A549 NSCLC = tested on: A549 NSCLC
CCRF-CEM leukemia = tested on: CCRF-CEM leukemia
HOP-92 NSCLC = tested on: HOP-92 NSCLC
PC-3 prostate = tested on: PC-3 prostate
SK-MEL-5 melanoma = tested on: SK-MEL-5 melanoma
UO-31 renal = tested on: UO-31 renal
MALME-3M melanoma = tested on: MALME-3M melanoma
NCI-H460 lung = tested on: NCI-H460 lung
SF-295 CNS = tested on: SF-295 CNS
NCI-H226 lung = tested on: NCI-H226 lung

CCOC(=O)/C=C/c1nc(C#N)c(N)o1
TGI (A549 NSCLC): > 100 µM | TGI (CCRF-CEM leukemia): > 100 µM | TGI (HOP-92 NSCLC): > 100 µM | TGI (PC-3 prostate): > 100 µM | TGI (SK-MEL-5 melanoma): > 100 µM | TGI (UO-31 renal): > 100 µM

O=C1NN(C2=NNC3(C(=O)N2)c2ccccc2-c2ccccc23)C(c2ccccc2)=N/C1=C/c1ccc(Cl)cc1
GI50 (A549 NSCLC): 60.2 µg/mL | TGI (A549 NSCLC): > 150 µg/mL | GI50 (CCRF-CEM leukemia): 52.6 µg/mL | TGI (CCRF-CEM leukemia): > 150 µg/mL | GI50 (MALME-3M melanoma): 89.9 µg/mL | TGI (MALME-3M melanoma): > 150 µg/mL | GI50 (NCI-H460 lung): 48.7 µg/mL | TGI (NCI-H460 lung): > 150 µg/mL | GI50 (PC-3 prostate): 44.7 µg/mL | TGI (PC-3 prostate): > 150 µg/mL | GI50 (SF-295 CNS): 30.7 µg/mL | TGI (SF-295 CNS): 73.9 µg/mL | GI50 (SK-MEL-5 melanoma): 46.4 µg/mL (≈ 85.1 µM) | TGI (SK-MEL-5 melanoma): > 150 µg/mL | GI50 (UO-31 renal): 48 µg/mL | TGI (UO-31 renal): > 150 µg/mL

O=C(COc1ccc(OCC(=O)N/N=C/c2ccc(-c3ccc(Cl)cc3Cl)o2)c(Cl)c1)N/N=C/c1ccc(-c2ccc(Cl)cc2Cl)o1
TGI (A549 NSCLC): > 100 µM | TGI (CCRF-CEM leukemia): 34.8 µM | TGI (MALME-3M melanoma): > 100 µM | TGI (NCI-H226 lung): > 100 µM | TGI (NCI-H460 lung): > 100 µM | TGI (PC-3 prostate): > 100 µM | TGI (SF-295 CNS): > 100 µM | TGI (SK-MEL-5 melanoma): > 100 µM | TGI (UO-31 renal): > 100 µM

CSCC[C@@H](NC(=O)[C@H](CC(C)C)NC(=O)C(Cc1cnc[nH]1)NC(=O)CNC(=O)[C@@H](NC(=O)[C@H](C)NC(=O)[C@H](Cc1c[nH]c2ccccc12)NC(=O)[C@H](CCC(N)=O)NC(=O)[C@@H](N)CC(N)=O)C(C)C)C(N)=O (some centres not stated)
TGI (A549 NSCLC): > 100 µM | TGI (CCRF-CEM leukemia): > 100 µM | TGI (HOP-92 NSCLC): > 100 µM | TGI (MALME-3M melanoma): > 100 µM | TGI (NCI-H226 lung): > 100 µM | TGI (NCI-H460 lung): > 100 µM | TGI (SF-295 CNS): > 100 µM | TGI (SK-MEL-5 melanoma): > 100 µM | TGI (UO-31 renal): > 100 µM

COCOc1ccc(C(=O)Oc2cccc3c2OC(C)(C)O3)c(OCOC)c1
TGI (CCRF-CEM leukemia): > 100 µM | TGI (HOP-92 NSCLC): > 100 µM | TGI (NCI-H226 lung): > 100 µM | TGI (NCI-H460 lung): > 100 µM | TGI (SF-295 CNS): > 100 µM | TGI (SK-MEL-5 melanoma): > 100 µM | TGI (UO-31 renal): > 100 µM

Cc1c2ccnc(C(N)=O)c2c(C)c2c1[nH]c1ccccc12
GI50 (A549 NSCLC): 3.28 µM | TGI (A549 NSCLC): 37.1 µM and 15.8 µM | GI50 (CCRF-CEM leukemia): 3.64 µM | TGI (CCRF-CEM leukemia): 46.6 µM and > 100 µM | GI50 (HOP-92 NSCLC): 2.96 µM and 11.5 µM | TGI (HOP-92 NSCLC): 12 µM and 53.2 µM | GI50 (MALME-3M melanoma): 5.02 µM | TGI (MALME-3M melanoma): 19.3 µM | GI50 (NCI-H226 lung): 3.28 µM | TGI (NCI-H226 lung): 19.8 µM and 15.7 µM | GI50 (NCI-H460 lung): 2.62 µM | TGI (NCI-H460 lung): 16.2 µM and 13.7 µM | GI50 (SF-295 CNS): 4.37 µM | TGI (SF-295 CNS): 25.6 µM and 22.3 µM | TGI (SK-MEL-5 melanoma): 13.6 µM | GI50 (UO-31 renal): 5.6 µM | TGI (UO-31 renal): 25.2 µM and 21.7 µM

Cc1c(N2CCOCC2)nc2ccc(Cl)cc2c1-c1ccccc1
TGI (A549 NSCLC): > 100 µM | TGI (CCRF-CEM leukemia): > 100 µM | TGI (HOP-92 NSCLC): > 100 µM | TGI (MALME-3M melanoma): > 100 µM | TGI (NCI-H460 lung): > 100 µM | TGI (SF-295 CNS): > 100 µM | TGI (SK-MEL-5 melanoma): 65.7 µM | TGI (UO-31 renal): > 100 µM

O=C(c1ccco1)N(C(=O)N1CCCCC1)c1ccccc1
TGI (CCRF-CEM leukemia): > 100 µM | TGI (MALME-3M melanoma): > 100 µM | TGI (NCI-H226 lung): > 100 µM | TGI (PC-3 prostate): > 100 µM | TGI (SK-MEL-5 melanoma): > 100 µM | TGI (UO-31 renal): > 100 µM

COc1cc2ccc3c4cc(OC)c(OC)cc4c[n+](C)c3c2cc1O
TGI (A549 NSCLC): > 100 µM | TGI (CCRF-CEM leukemia): > 100 µM | TGI (HOP-92 NSCLC): > 100 µM | TGI (MALME-3M melanoma): > 100 µM | TGI (NCI-H226 lung): > 100 µM | TGI (NCI-H460 lung): > 86.7 µM | TGI (SK-MEL-5 melanoma): > 100 µM | TGI (UO-31 renal): > 100 µM

CN(C)CCn1c(=O)c2ccc(NCCCN(C)CCCNc3ccc4c(=O)n(CCN(C)C)c(=O)n5c6ccc(O)cc6c(=O)c3c45)c3c(=O)c4cc(O)ccc4n(c1=O)c23
TGI (A549 NSCLC): 0.786 µM | TGI (CCRF-CEM leukemia): 0.13 µM | TGI (MALME-3M melanoma): 0.598 µM | TGI (NCI-H226 lung): 0.0488 µM | TGI (NCI-H460 lung): 0.234 µM | TGI (PC-3 prostate): 0.31 µM | TGI (SF-295 CNS): 2.33 µM | TGI (SK-MEL-5 melanoma): 0.171 µM | TGI (UO-31 renal): 0.452 µM

Cc1ccccc1-c1nc2c(N)nc(N)nc2nc1N
TGI (A549 NSCLC): > 100 µM | TGI (CCRF-CEM leukemia): > 100 µM | TGI (NCI-H460 lung): > 100 µM | TGI (PC-3 prostate): > 100 µM | TGI (SF-295 CNS): > 100 µM | TGI (SK-MEL-5 melanoma): > 100 µM | TGI (UO-31 renal): > 100 µM

c1ccc(-c2c(-c3ccccc3)[n+](Cc3ccc4ccccc4c3)c(-c3ccc(-c4nc5ccccc5s4)cc3)n2Cc2ccc3ccccc3c2)cc1
GI50 (A549 NSCLC): 0.176 µM | TGI (A549 NSCLC): 1.55 µM | GI50 (CCRF-CEM leukemia): 0.202 µM | TGI (CCRF-CEM leukemia): > 41.5 µM | GI50 (MALME-3M melanoma): 0.0536 µM | TGI (MALME-3M melanoma): 0.204 µM | GI50 (NCI-H460 lung): 0.231 µM | TGI (NCI-H460 lung): 1.11 µM | GI50 (PC-3 prostate): 0.111 µM | TGI (PC-3 prostate): 0.528 µM | GI50 (UO-31 renal): 0.28 µM | TGI (UO-31 renal): 0.872 µM

COC(=O)CC(=O)OSc1ccccc1
TGI (A549 NSCLC): 77.3 µM | TGI (CCRF-CEM leukemia): > 100 µM | TGI (HOP-92 NSCLC): 67.9 µM | TGI (MALME-3M melanoma): > 100 µM | TGI (NCI-H226 lung): 64 µM | TGI (NCI-H460 lung): > 100 µM | TGI (SF-295 CNS): 96.3 µM | TGI (SK-MEL-5 melanoma): 87.9 µM | TGI (UO-31 renal): 24.7 µM

CC1CC(N2CCOCC2)=Nc2ccccc2N1C (configuration not stated)
TGI (A549 NSCLC): > 100 µM | TGI (CCRF-CEM leukemia): > 100 µM | TGI (MALME-3M melanoma): > 100 µM | TGI (NCI-H226 lung): > 100 µM | TGI (NCI-H460 lung): > 100 µM | TGI (PC-3 prostate): > 100 µM | TGI (SF-295 CNS): > 100 µM | TGI (SK-MEL-5 melanoma): > 100 µM | TGI (UO-31 renal): > 100 µM

COc1ccc2ccc3oc(=O)c(C)cc3c2c1
TGI (A549 NSCLC): > 100 µM | TGI (CCRF-CEM leukemia): > 100 µM | TGI (MALME-3M melanoma): > 100 µM | TGI (NCI-H226 lung): > 100 µM | TGI (NCI-H460 lung): > 100 µM | TGI (PC-3 prostate): > 100 µM | TGI (SF-295 CNS): > 100 µM | TGI (SK-MEL-5 melanoma): > 100 µM | TGI (UO-31 renal): > 100 µM

CC(=O)NNc1nc(C)c(C(=O)NNC(=O)C(=O)Nc2ccc([N+](=O)[O-])cc2[N+](=O)[O-])s1
TGI (A549 NSCLC): > 100 µM | TGI (CCRF-CEM leukemia): 79.6 µM | TGI (HOP-92 NSCLC): > 100 µM | TGI (NCI-H226 lung): > 100 µM | TGI (NCI-H460 lung): > 100 µM | TGI (SF-295 CNS): > 100 µM | TGI (SK-MEL-5 melanoma): > 100 µM | TGI (UO-31 renal): > 100 µM

COc1ccc2c(c1)c1c(n2CCN2CCCCC2)-c2cccc(OC)c2CC1
TGI (A549 NSCLC): > 100 µM | TGI (CCRF-CEM leukemia): 27.3 µM | TGI (NCI-H226 lung): 24.1 µM | TGI (NCI-H460 lung): 55.9 µM | TGI (PC-3 prostate): 35.6 µM | TGI (SF-295 CNS): > 100 µM | TGI (SK-MEL-5 melanoma): 45.5 µM | TGI (UO-31 renal): 24.7 µM
